Data: patent US9586931B2 (Merck Sharp & Dohme Corp., priority 2012, dated 2017)
Where “and” joins values, the source holds several entries; their conditions need not be identical. Equal entries are not always repeated.

These compounds were tested against T1, recombinant human GST-Syk (Homo sapiens, UniProt P43405) (assay: Homogeneous Time-Resolved Fluorescence (HTRF) assay for the recombinant human Syk enzyme). Conditions: recombinant human GST-Syk 5 pM, ATP 25 μM, 10-dose titration 10 μM to 0.508 nM; read-out: rhSYK Activity IC50.
T1 construct: purchased Carna Biosciences 08-176
Type: biochemical
Summary of the method: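 Detection used time-resolved fluorescence 30 min after adding a quench mix (40 mM EDTA, 15 mM Tris pH 7.5, 0.01% Tween 20) containing 2 nM Europium anti-pTyr antibody and 70 nM streptavidin-APC. This followed 45 min of room-temperature peptide phosphorylation by recombinant GST-tagged human Syk.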

Row | SMILES | IC50
1 | Cc1cc(Nc2nccc(C(F)(F)F)n2)cc(-c2cn(CC(=O)O)nn2)c1 [Example 5.58, [4-(3-methyl-5-{[4-(trifluoromethyl)pyrimidin-2-yl]amino}phenyl)-1H-1,2,3-triazol-1-yl]acetic acid] | 0.0613 µM
2 | CC(=O)N1CCN(C(=O)Cn2cc(-c3cc(C)cc(Nc4nccc(C(F)(F)F)n4)c3)nn2)CC1 [Example 5.59, N-(3-{1-[2-(4-acetylpiperazin-1-yl)-2-oxoethyl]-1H-1,2,3-triazol-4-yl}-5-methylphenyl)-4-(trifluoromethyl)pyrimidin-2-amine] | 0.0698 µM
3 | Cc1cc(Nc2nccc(C(F)(F)F)n2)cc(-c2cn(CCS(C)(=O)=O)nn2)c1 [Example 5.62, N-(3-methyl-5-{1-[2-(methylsulfonyl)ethyl]-1H-1,2,3-triazol-4-yl}phenyl)-4-(trifluoromethyl)pyrimidin-2-amine] | 0.0464 µM
4 | Cc1cc(Nc2nccc(C(F)(F)F)n2)cc(-c2cn(C3CS(=O)(=O)CC3O)nn2)c1 (stereo not drawn) [Example 5.63, 4-[4-(3-methyl-5-{[4-(trifluoromethyl)pyrimidin-2-yl]amino}phenyl)-1H-1,2,3-triazol-1-yl]tetrahydrothiophene-3-ol 1,1-dioxide] | 0.0241 µM
5 | Cc1cc(Nc2nccc(C(F)(F)F)n2)cc(-c2cn(CC(=O)N3[C@H](C)COC[C@@H]3C)nn2)c1 [Example 5.65, N-[3-(1-{2-[(cis)-3,5-dimethylmorpholin-4-yl]-2-oxoethyl}-1H-1,2,3-triazol-4-yl)-5-methylphenyl]-4-(trifluoromethyl)pyrimidin-2-amine] | 0.122 µM
6 | Cc1cc(Nc2nccc(C(F)(F)F)n2)cc(-c2cn(CC(=O)N3CCOCC3(C)C)nn2)c1 [Example 5.66, N-(3-{1-[2-(3,3-dimethylmorpholin-4-yl)-2-oxoethyl]-1H-1,2,3-triazol-4-yl}-5-methylphenyl)-4-(trifluoromethyl)pyrimidin-2-amine] | 0.152 µM
7 | COCC(C)(C)NC(=O)Cn1cc(-c2cc(C)cc(Nc3nccc(C(F)(F)F)n3)c2)nn1 [Example 5.67, N-(2-methoxy-1,1-dimethylethyl)-2-[4-(3-methyl-5-{[4-(trifluoromethyl)pyrimidin-2-yl]amino}phenyl)-1H-1,2,3-triazol-1-yl]acetamide] | 0.296 µM
8 | Cc1cc(Nc2nccc(C(F)(F)F)n2)cc(-c2cn(CC(=O)N3COCC3(C)C)nn2)c1 [Example 5.68, N-(3-{1-[2-(4,4-dimethyl-1,3-oxazolidin-3-yl)-2-oxoethyl]-1H-1,2,3-triazol-4-yl}-5-methylphenyl)-4-(trifluoromethyl)pyrimidin-2-amine] | 0.114 µM
9 | Cc1cc(Nc2nccc(C(F)(F)F)n2)cc(-c2cn(Cc3noc(C)n3)nn2)c1 [Example 5.69, N-(3-methyl-5-{1-[(5-methyl-1,2,4-oxadiazol-3-yl)methyl]-1H-1,2,3-triazol-4-yl}phenyl)-4-(trifluoromethyl)pyrimidin-2-amine] | 0.0572 µM
10 | Cc1cc(Nc2nccc(C(F)(F)F)n2)cc(-c2cn(CC(=O)NC(C)(C)C)nn2)c1 [Example 5.70, N-tert-butyl-2-[4-(3-methyl-5-{[4-(trifluoromethyl)pyrimidin-2-yl]amino}phenyl)-1H-1,2,3-triazol-1-yl]acetamide] | 0.183 µM
11 | Cc1cc(Nc2nccc(C(F)(F)F)n2)cc(-c2cn(CCCN3CCNC3=O)nn2)c1 [Example 5.71, 1-{3-[4-(3-methyl-5-{[4-(trifluoromethyl)pyrimidin-2-yl]amino}phenyl)-1H-1,2,3-triazol-1-yl]propyl}imidazolidin-2-one] | 0.152 µM
12 | Cc1cc(Nc2nccc(C(F)(F)F)n2)cc(-c2cn(CC#N)nn2)c1 [Example 5.78, [4-(3-methyl-5-{[4-(trifluoromethyl)pyrimidin-2-yl]amino}phenyl)-1H-1,2,3-triazol-1-yl]acetonitrile] | 0.0841 µM
13 | Cc1cc(Nc2cc(C(F)(F)F)ccn2)nc(-c2cn(C[C@@H](C)CO)nn2)c1 [Example 5.81, (2R)-2-methyl-3-[4-(4-methyl-6-{[4-(trifluoromethyl)pyridin-2-yl]amino}pyridin-2-yl)-1H-1,2,3-triazol-1-yl]propan-1-ol] | 0.0069 µM
14 | Cc1cc(Nc2cc(C(F)(F)F)ccn2)nc(-c2cn(C[C@H](C)CO)nn2)c1 [Example 5.82, (2S)-2-methyl-3-[4-(4-methyl-6-{[4-(trifluoromethyl)pyridin-2-yl]amino}pyridin-2-yl)-1H-1,2,3-triazol-1-yl]propan-1-ol] | 0.0079 µM
15 | COC(=O)[C@@H](C)Cn1cc(-c2cc(C)cc(Nc3cc(C(F)(F)F)ccn3)n2)nn1 [Example 5.86, methyl (2S)-2-methyl-3-[4-(4-methyl-6-{[4-(trifluoromethyl)pyridin-2-yl]amino}pyridin-2-yl)-1H-1,2,3-triazol-1-yl]propanoate] | 0.0664 µM
16 | Cc1cc(Nc2cc(C(F)(F)F)ccn2)nc(-c2cn(CC(=O)N3CCCC3)nn2)c1 [Example 5.87, 4-methyl-6-[1-(2-oxo-2-pyrrolidin-1-ylethyl)-1H-1,2,3-triazol-4-yl]-N-[4-(trifluoromethyl)pyridin-2-yl]pyridin-2-amine] | 0.0812 µM

Continued, values first:

Row | IC50 | SMILES
17 | 0.0418 µM | Cc1cc(Nc2nccc(C(F)(F)F)n2)cc(-c2cn(CCC(=O)O)nn2)c1 [Example 5.60, 3-[4-(3-methyl-5-{[4-(trifluoromethyl)pyrimidin-2-yl]amino}phenyl)-1H-1,2,3-triazol-1-yl]propanoic acid]
18 | 0.0381 µM | Cc1cc(Nc2nccc(C(F)(F)F)n2)cc(-c2cn(C[C@H](C)CO)nn2)c1 [Example 5.72, (2S)-2-methyl-3-[4-(3-methyl-5-{[4-(trifluoromethyl)pyrimidin-2-yl]amino}phenyl)-1H-1,2,3-triazol-1-yl]propan-1-ol]
19 | 0.0392 µM | Cc1cc(Nc2nccc(C(F)(F)F)n2)cc(-c2cn(C[C@@H](C)CO)nn2)c1 [Example 5.73, (2R)-2-methyl-3-[4-(3-methyl-5-{[4-(trifluoromethyl)pyrimidin-2-yl]amino}phenyl)-1H-1,2,3-triazol-1-yl]propan-1-ol]
20 | 0.187 µM | Cc1cc(Nc2nccc(C(F)(F)F)n2)cc(-c2cn(CCN)nn2)c1 [Example 5.74, N-{3-[1-(2-aminoethyl)-1H-1,2,3-triazol-4-yl]-5-methylphenyl}-4-(trifluoromethyl)pyrimidin-2-amine]
21 | 0.0316 µM | Cc1cc(Nc2nccc(C(F)(F)F)n2)cc(-c2cn(CCC(N)=O)nn2)c1 [Example 5.75, 3-[4-(3-methyl-5-{[4-(trifluoromethyl)pyrimidin-2-yl]amino}phenyl)-1H-1,2,3-triazol-1-yl]propanamide]
22 | 0.0507 µM | Cc1cc(Nc2nccc(C(F)(F)F)n2)cc(-c2cn(CCCO)nn2)c1 [Example 5.77, 3-[4-(3-methyl-5-{[4-(trifluoromethyl)pyrimidin-2-yl]amino}phenyl)-1H-1,2,3-triazol-1-yl]propan-1-ol]
23 | 0.0738 µM and 0.0818 µM | Cc1cc(Nc2nccc(C(F)(F)F)n2)cc(-c2cn(CC(N)=O)nn2)c1 [Example 5.79, 2-[4-(3-methyl-5-{[4-(trifluoromethyl)pyrimidin-2-yl]amino}phenyl)-1H-1,2,3-triazol-1-yl]acetamide]

Same assay, conditions: rhSYK Activity IC50, recombinant human GST-Syk 5 pM, ATP 25 μM, 10-dose titration 10 μM to 0.508 nM

Row | IC50 | SMILES
24 | 0.0768 µM | Cc1cc(Nc2nccc(C(F)(F)F)n2)cc(-c2cn(CCNC(N)=O)nn2)c1 [Example 5.56, 1-{2-[4-(3-methyl-5-{[4-(trifluoromethyl)pyrimidin-2-yl]amino}phenyl)-1H-1,2,3-triazol-1-yl]ethyl}urea]
